Paper PMC11476629, “Exploring a Potential Optimization Route for Peptide Ligands of the Sam Domain from the Lipid Phosphatase Ship2” (International Journal of Molecular Sciences, 2024)
Non-standard residues stand in square brackets, D forms with d. Residues, ends and D or L forms follow the SMILES beside them. βAla = NCCC(=O)O

Tests used:
PC-3 cells = conditions: 4 h, crystal violet
Method: (§1) Media and supplements were obtained from Thermo Fisher Scientific (Milan, Italy). PC-3 cells were cultured in the RPMI 1640 medium enriched with 10% fetal bovine serum (FBS) and 2 mM L-glutamine. NHDFs were cultured in the DMEM medium complemented with 2% FBS, 1 μg/mL hydrocortisone, 10 ng/mL human epidermal growth factor, 3 ng/mL basic fibroblast growth factor, and 10 μg/mL heparin. For the cytotoxicity assay 96-well flat-bottom microplates were used and 4 × 10^3 cancer cells and 5 × 10^3 NHDF cells were seeded in 50 μL of medium per well and incubated overnight to permit cell adhesion at 37 °C in a 5% CO2 humidified atmosphere. Following the removal of the culture medium, cells were incubated with 100 μL of their growth medium containing 50 and 100 μM TAT-PSscan255 for 4 h. TAT-PSscan255 was dissolved in water. The crystal violet assay was performed to assess cell viability. The amount of dye taken up was quantified with a plate reader (Multiskan Fc 10094, Thermo Fisher Scientific, Milan, Italy) at 595 nm. Data, reported as means ± SEM of three independent experiments carried out in quadruplicate, were presented as the percentage of proliferating cells compared to the control (vehicle-treated cells).

[1] = tested on: normal human dermal fibroblasts (NHDFs); conditions: NHDF, 50 and 100 µM, 4 h, crystal violet; three experiments in quadruplicate
Method: as §1

[2] = tested on: EphA2 levels in PC-3 cells; test: Western blot analysis of EphA2 levels; type: cell-based; conditions: n = 3
Method: The levels of EphA2 were monitored in PC-3 cells through Western blot analysis to evaluate if the binding of the TAT-PSscan255 peptide to Ship2-Sam could avoid the inhibition of EphA2 endocytosis and degradation. For this purpose, PC-3 cells were treated with ephrinA1-Fc (1 µg/mL for 2 h) and TAT-PSscan255 (50 µM for 4 h), both alone and in combination (i.e., pre-treating with TAT-peptide 50 µM for 2 h followed by the addition of ephrinA1-Fc 1 µg/mL for an extra 2 h) (Figure 7b).
PC-3 cells were treated with TAT-PSscan255 (50 μM) for 4 h and ephrinA1-Fc (1 μg/mL) for 2 h, both alone and in combination. […] Lysates were centrifuged at 13,000 rpm for 30 min at 4 °C and the protein concentration in the supernatants was evaluated using the Bradford assay. […] Quantification was achieved through densitometric analysis with the ImageJ software (v.1.54g) (National Institutes of Health, Bethesda, MD, USA, https://imagej.org). Statistical significance regarding the comparison between treated and untreated cells was evaluated with one-way ANOVA using Dunnett’s post-test analysis. Statistical analysis was assessed with the OriginPro software v.2023 (OriginLab Corporation, Northampton, MA, USA).

CC[C@H](C)[C@H](NC(=O)[C@H](CCCNC(=N)N)NC(=O)[C@H](CCCCN)NC(=O)[C@H](CC(N)=O)NC(=O)[C@H](C)NC(=O)[C@H](CC(C)C)NC(=O)[C@H](Cc1ccccc1)NC(=O)[C@H](CCCCN)NC(=O)[C@H](Cc1ccc(O)cc1)NC(=O)[C@H](Cc1c[nH]c2ccccc12)NC(=O)[C@H](CCC(=O)O)NC(=O)[C@H](CCCNC(=N)N)NC(=O)[C@H](CCCCN)NC(=O)CNC(=O)CNC(=O)[C@H](CCC(N)=O)NC(=O)[C@@H]1CCCN1C(=O)[C@@H]1CCCN1C(=O)[C@H](CCCNC(=N)N)NC(=O)[C@H](CCCNC(=N)N)NC(=O)[C@H](CCCNC(=N)N)NC(=O)[C@H](CCC(N)=O)NC(=O)[C@H](CCCNC(=N)N)NC(=O)[C@H](CCCNC(=N)N)NC(=O)[C@H](CCCCN)NC(=O)[C@H](CCCCN)NC(=O)[C@H](CCCNC(=N)N)NC(=O)CNC(=O)CCNC(C)=O)C(=O)N[C@@H](C)C(=O)N[C@@H](Cc1ccc(O)cc1)C(N)=O [TAT-PSscan255] (Ac-[βAla]GRKKRRQRRRPPQGGKREWYKFLANKRIAY-NH2)
Cytotoxicity towards PC-3 compared with NHDFs (PC-3 cells; 50 and 100 µM): increased cytotoxicity towards PC-3 with respect to NHDFs | Cytotoxic effect (cell viability relative to untreated cells) (PC-3 cells; PC-3, 50 and 100 µM, three experiments in quadruplicate): increased cytotoxic effect as a function of concentration | Cytotoxic effect (cell viability relative to untreated cells) [1]: increased cytotoxic effect as a function of concentration | EphA2 levels with respect to untreated control ([2]; PC-3, TAT-PSscan255 alone, 50 µM for 4 h): a certain decrease in EphA2 levels | EphA2 levels with respect to untreated control ([2]; PC-3, TAT-peptide 50 µM for 2 h, then ephrinA1-Fc 1 µg/mL added for an extra 2 h): a reduction in EphA2 levels like that observed for the ephrin ligand when used by itself
